Patent US20080070909A1, “ENANTIOMERICALLY PURE BETA AGONISTS, MANUFACTURING AND USE THEREOF” (priority 2006, published 2008)

melting point: 168 °C
SMILES: CCC1(CC)OC(=O)N(CCC(C)(C)NCC(O)c2ccc(O)c(NS(C)(=O)=O)c2)c2ccccc21 (stereo not shown) [Example 10, N-(5-{2-[3-(4,4-diethyl-2-oxo-4H-benzo[d][1,3]oxazin-1-yl)-1,1-dimethyl-propylamino]-1-hydroxy-ethyl}-2-hydroxy-phenyl)-methanesulphonamide]
